Experimental data published in patent EP4778522A1, “USE OF PYRROLOPYRIMIDINE COMPOUND AND COMPOSITION THEREOF” (Guangzhou Joyo Pharmatech Co., Ltd., priority 2023, dated 2025).
“And” between values parts separate entries of the source, which are not always exact repeats. Identical values can stand only once. Marks after values point to notes of the source that are not given here.

Columns and labels:
[1] = test system: imiquimod-induced C3H/HeJ mice alopecia areata model; assay: Imiquimod-induced mouse alopecia areata model: hair growth; assay type: in vivo; details: for Hair growth rate (%): listed as test drug
Procedure: • 1) Animals: female C3H/He mice, SPF, aged 6-8 weeks at grouping. The animals were provided by Beijing Viewsolid Biotech. • 2) Reagents, positive drugs and test drugs
After one week of adaptive feeding of C3H/HeJ mice: modeling was performed by applying imiquimod ointment to the neck, 3 times a week. The mice were carefully taken out, and about 0.05 g of 5% imiquimod ointment was dipped with a clean medical cotton swab and then applied evenly to the skin on the neck over a range of about 1.5 cm×1.5 cm. Before each application, the local part was cleaned by normal saline to remove the residual drug in the previous time. The continuous administration time was no longer than 10 weeks. When alopecia areata with an area size > 1 cm×1 cm was formed at the administration part, the administration was stopped, proving that a preparation model was successful. The mice in the normal control group were modeled by using blank ointment (vaseline ointment).
During the period from the first administration to the end of the last administration after the alopecia areata modeling was successful, the alopecia areata part of each mouse was photographed once every 3 days, the photographing distance, angle and magnification times were fixed, and the hair growth of the alopecic areas on the backs of the mice was recorded.
Visual quantification of the alopecia area images was performed using ImageJ software. The hair growth area (a) and hair loss area (b) were calculated. The hair growth rate was counted and analyzed: hair growth rate (%) = (a/b)* 100%. The newly grown hairs at the alopecia areata part of the mice in each group were scored based on the hair growth rate. Table 14 Scoring criteria of newly grown hairs

[2] = test system: monobenzone-induced mouse vitiligo model; assay: Monobenzone-induced mouse vitiligo model: skin pathological analysis of melanin-containing hair follicles; assay type: in vivo, C57BL/6 mice; details: for Number of melanin-containing hair follicles / Proportion of melanin-containing hair follicles (%): 30 mg topical twice a day for 50 days
Procedure: The mice were euthanized within 2-4 hours after the last administration, and approximately 1 cm^2 of the skin in the center of the depilated part of the mice was taken and fixed with 4% paraformaldehyde. The animal skin tissues were fixed with 4% paraformaldehyde, dehydrated, embedded with paraffin, sectioned and then subjected to HE staining. The stained sections were photographed by white light panoramic scanning, histopathological changes of the skin tissues and inflammatory cell infiltration were observed, and the number of melanin-containing hair follicles and/or the proportion of the melanin-containing hair follicles in the skin were quantitatively analyzed. The panoramic scanning files were opened by using CaseViewer software, a picture view with the length of about 3.8 mm was randomly selected, and the pictures were saved. The number of all the hair follicles and the number of the melanin-containing hair follicles in the picture were counted respectively by using ipwin32 software. The proportion of the melanin-containing hair follicles was calculated according to the following formula: Proportion of melanin-containing hair follicles = number of melanin-containing follicles/number of all follicles

CN(c1ncnc2[nH]ccc12)[C@@H]1CCc2cc(C#N)nn2C1 [compound I]
Hair growth rate (%) ([1]; 3 mg/kg oral by gavage twice a day for one month, Day 30): 71.62 ± 5.56%
amelioration effect (comparison) ([1]; 3 mg/kg oral, hair growth at alopecic area, Day 30): equivalent to that of the positive control drug at the dose of 10 mg/kg
Hair growth rate (%) ([1]; 10 mg/kg oral by gavage twice a day for one month, Day 30): 83.93 ± 5.58%
therapeutic effect (comparison) ([1]; mouse alopecia areata model, oral): superior to that of the positive drug baricitinib
therapeutic effect (comparison) ([2]; 1% and 2% compound I gel, reduction of melanin-containing hair follicles in vitiligo model): equivalent to that of 1.5% ruxolitinib and superior to that of 0.03% tacrolimus
Number of melanin-containing hair follicles ([2]; 1% compound I gel): 30.3
Proportion of melanin-containing hair follicles (%) ([2]; 1% compound I gel): 29.7 ± 9.1% and 29.7%
Number of melanin-containing hair follicles ([2]; 1% compound I gel, listed as Compound I): 30.3 ± 14.8
number of the melanin-containing hair follicles, increase compared to the blank preparation group ([2]; 2% compound I gel): 37.9%
number of the melanin-containing hair follicles, times that of the model control group ([2]; 2% compound I gel): about 4 times
proportion of the melanin-containing hair follicles relative to the model control group ([2]; 2% compound I gel): about twice
Number of melanin-containing hair follicles ([2]; 2% compound I gel): 26.9*
Proportion of melanin-containing hair follicles (%) ([2]; 2% compound I gel): 30.6 ± 6.2% and 30.6%
Number of melanin-containing hair follicles ([2]; 2% compound I gel, listed as Compound I): 26.9 ± 7.4
therapeutic effect (comparison) ([2]; 2% compound I gel, proportion of melanin-containing hair follicles): equivalent to that of the ruxolitinib ointment
